Measured values published in PMC4703546 (Bioorganic & medicinal chemistry, 2015).
pIC50: −log10 of the molar value.

Columns and labels:
[1] = test system: all c-Met-dependant cell lines; experiment: MTT proliferation assay, panel summary; format: cell-based; conditions: Homo sapiens, read-out: IC50 range, antiproliferative activity
[2] = test system: HL-60 cells; conditions: HL-60, 5 and 10 μM; cited from earlier work
[3] = test system: c-Met in MDA-MB-231 cells; experiment: Western blot analysis of c-Met and p-c-Met levels; format: cell-based, human; conditions: MDA-MB-231, 15 and 30 μM, 48 h
[4] = test system: MDA-MB-231/GFP; experiment: Orthotopic athymic nude mouse xenograft model; format: in vivo, athymic nude mice; conditions: 10 mg/kg i.p. 3 times per week
[5] = test system: non-tumorigenic human mammary epithelial cells MCF-10A

| Compound | pIC50 [1] | cytotoxic mechanism by flow cytometric analysis [2] | effect on phosphorylated (activated) c-Met level [3] | effect on total c-Met level [3] | effect on body weight gains and gross phenotype ([4]; listed as meleagrin) | effect on body weight gains and gross phenotype ([4]; listed as meleagrin (1)) | toxicity towards MCF-10A cells [5] |
| --- | --- | --- | --- | --- | --- | --- | --- |
| O=C1N[C@@H](Cc2c[nH]c3ccccc23)C(=O)N/C1=C/c1cnc[nH]1 [DHTD (3), dehydrohistidyltryptophenyl-diketopiperazine] | 4.40 to 4.70 | – | – | – | – | – | – |
| C=CC(C)(C)[C@@]12C[C@H]3C(=O)N/C(=C/c4c[nH]cn4)C(=O)N3[C@@H]1Nc1ccccc12 [Roquefortine C (2), roquefortine C] | 4.40 to 4.70 | – | – | – | – | – | – |
| C=CC(C)(C)[C@@]12C=C(O)C(=O)N3/C(=C/c4cn([C@H]5C[C@@]6(O)O[C@@H]7C[C@@]6(C)[C@]6(C[C@]8(C)CCC(C)(C)[C@@H]8[C@@H]76)[C@@H]5C)cn4)C(=O)N[C@]31N(OC)c1ccccc12 [Meleagrin B] | – | induced HL-60 cells apoptosis | – | – | – | – | – |
| C=CC(C)(C)[C@@]12C=C(O)C(=O)N3/C(=C/c4cnc[nH]4)C(=O)N[C@]31N(OC)c1ccccc12 [Meleagrin (1), meleagrin] | 5.05 to 5.74 | arrested the cell cycle through G2/M phase | significant reduction | no effect | not adversely affecting | no significant changes | minimal |
